Test results from ChEMBL document CHEMBL3507680, “University of Dundee, Gates Library screen for HepG2 cell viability”.

Experiment: Human HepG2 cell viability assay in 384 well format
Type: toxicity, cell-based
Design: dose 125 nL, time 70.5 hour; concentration not given beside the values
Settings: HepG2 cells, read-out: Inhibition

Row | Structure (SMILES) | cytotoxicity at 70.5 h
1 | CC(C)CCOCCNC(=O)Nc1ccc(F)c(C(N)=O)c1 | -1.3%
2 | Cc1ccc(S(=O)(=O)N2CCCC3(CCCN3S(C)(=O)=O)C2)cc1F (configuration not stated) | 0.261%
3 | CCNC(=O)C1CCN(Cc2ccc(C(=O)Nc3nnc(C)s3)cc2)C1 (configuration not stated) | 26.3%
4 | COc1ccc(C(=O)N2C[C@H]3CC[C@@H]2CN(C)C3)cc1Cl | 47.4%
5 | CS(=O)(=O)c1ccc(OCCCN2CCc3cncnc3C2)cc1 | 23.6%
6 | Cc1noc(C)c1CN(C)C(=O)C1CCCCN1S(C)(=O)=O (configuration not stated) | 13.6%
7 | CN1CCN(Cc2cccnc2)C(=O)C12CCN(S(C)(=O)=O)CC2 | -5.92%
8 | COCc1cn(CC2CCN(Cc3cc(C)[nH]n3)CC2)nn1 | 20%
9 | CCCC(=O)NCc1ccc(N2CCCCC2)cc1 | -10.2%
10 | COc1cccc(C2CCCN2C(=O)c2cc3c([nH]c2=O)CCC3)c1 (configuration not stated) | -2.15%
11 | CCC1CN(CC(=O)NCCN2CCCCCC2)c2ccccc2S1 (configuration not stated) | -1.59%
12 | Cc1nc(CN2CCO[C@@H]3CN(Cc4nccs4)C[C@@H]3C2)cs1 | -1.91%
13 | COc1nn(C)cc1C(=O)N1CCC(C)CC1 | 26.1%
14 | O=C(c1cc(Cn2ccc3ccccc32)[nH]n1)N1CCCCC1CO (configuration not stated) | 10.4%
15 | C[C@]1(O)CN(CCO)CC[C@@H]1Oc1cccc(F)c1 | -2.99%
16 | Cc1noc(C)c1CC(=O)OCC(=O)N1CCc2sccc2C1 | 7.95%
17 | COc1ncc(CN2CCC3(CCCN(CC4CCC4)C3)C2)cn1 (configuration not stated) | -1.38%
18 | COc1nc(C)ccc1CNC(=O)NC(c1ncc(C)s1)C1CC1 (configuration not stated) | -2.73%
19 | CC(=O)N1CCN(Cc2ccco2)CC2(CC(=O)N(C)C2)C1 (configuration not stated) | 20.7%

Row | Structure (SMILES) | cytotoxicity at 70.5 h
20 | CCO[C@@H]1CCN(c2ccc(C)nn2)[C@@H]1Cc1cnn(C)c1 | -10.9%
21 | COC(C)(C)CNC(=O)N(C)Cc1nc(-c2ccccc2)c[nH]1 | 24.9%
22 | CCOC(=O)CCNC(=O)N1CCCC(CNC(=O)c2ccco2)C1 (configuration not stated) | 3.18%
23 | Cc1nn(C)c(C)c1-c1ccnc(N(C)Cc2noc(C(C)C)n2)n1 | 7.17%
24 | Cc1cc(S(=O)(=O)Nc2cccc(-n3cccc3)c2)sc1C(=O)O | -13%
25 | Cc1nc(Cn2c(=O)cnc3ccccc32)n(C)n1 | -24.2%
26 | Cc1nc2ccccc2c(=O)n1Cc1nnnn1C1CC1 | 1.18%
27 | COC(=O)c1cccc(S(=O)(=O)N2CSCC2C(=O)N(C)C2CC2)c1 (configuration not stated) | 12.1%
28 | Cc1cc(C)c(S(=O)(=O)Nc2c(C)noc2C)cc1C(=O)O | -2.9%
29 | Cn1cnnc1S(=O)(=O)C1CCN(C(=O)c2cccs2)CC1 | -10.5%
30 | CC(C)CN1C(=O)CC[C@]12CC[C@@H](NC(=O)NCc1cccnc1)CC2 | -3.62%
31 | O=C(c1ccoc1)N1C[C@@H]2[C@@H](C1)OCC(=O)N2Cc1cccnc1 | -3.91%
32 | CCOCC1CN(C(=O)c2ccco2)Cc2cnn(C)c21 (configuration not stated) | -2.81%
33 | Cc1cnn(CC2CCCN2CC(=O)NCc2ccccn2)c1 (configuration not stated) | -3.32%
34 | CN(C)c1nc2sc(C(=O)N3CCN(C(=O)OC(C)(C)C)CC3)cc2s1 | -8.07%
35 | O=C(CNc1cc2c(cc1Cl)OCCO2)NCC(F)(F)F | -3.78%
36 | CC(C)N1CCC(c2ccnc3c(C(=O)N4CCCC4)ncn23)CC1 | -3.82%
37 | COc1ncccc1CNC(=O)N1CCC(CN2CCOCC2)CC1 | 13.3%
38 | COc1cc(OCC(=O)NCCc2ccccc2)cc(OC)c1OC | -5.97%

Row | Structure (SMILES) | cytotoxicity at 70.5 h
39 | Cc1cc(S(=O)(=O)N(CCO)C2CC2)ccc1F | -2.56%
40 | CCC(=O)N(CC)C(c1cccnc1)c1ccc2c(c1)CCO2 (configuration not stated) | -2.76%
41 | CN1CCOC(CNC(=O)CCCOc2ccccc2F)C1 (configuration not stated) | -15.3%
42 | O=C(Cn1cncn1)NCC1(O)CCCc2ccccc21 (configuration not stated) | 23.9%
43 | COC(=O)c1cccn1C1CCN(Cc2ccccc2)CC1 | 15.7%
44 | CC(c1nc(-c2cccnc2)no1)N(C)CCCOc1ccccc1 (configuration not stated) | -3.8%
45 | CCNC(=O)N1CCC2(CC1)CCn1c(-c3ccccc3)cnc12 | -3.37%
46 | Cc1ncncc1C(=O)Nc1cnn(CC(=O)NC2CCCC2)c1 | -19.5%
47 | Cc1cccc(C(C)(C)CNC(=O)CCSc2nnnn2C)c1 | -2.6%
48 | O=C(O)c1ccn(-c2cccc(NC(=O)c3ccccc3Cl)c2)n1 | -6.97%
49 | COc1cccn(CC(=O)N(C)CCCOc2c(C)cccc2C)c1=O | 29.5%
50 | CCC(C(=O)NCc1cc(N2CCOCC2)ncn1)n1cccn1 (configuration not stated) | -1.38%
51 | O=C(C1CC=CC1)N1C[C@@H]2[C@@H](C1)OCC(=O)N2Cc1cccnc1 | 0.567%
52 | CC(NC(=O)NCCCO)c1ccc(-c2ccncc2)cc1 (configuration not stated) | -9.46%
53 | Cc1csc(N2CCN(C(=O)NCCNc3ncccn3)CC2)n1 | -5.98%
54 | CO[C@H]1CN(C(C)C)C[C@@H]1NC(=O)c1cc(-c2ccccc2F)n[nH]1 | -6.15%
55 | O=C(CC1CCCC1)N1CCC(c2noc(-c3ccccn3)n2)CC1 | 6.76%
56 | CC1CN(C)c2ccccc2CN1C(=O)CSc1ccncc1 (configuration not stated) | 1.51%
57 | CCNC(=O)Nc1c(C)cnn1Cc1cc(F)ccc1F | -11.6%
